For orientation: IC50 means the concentration that gives 50% inhibition.

The nature of one data set: in vitro. The conditions noted are these: African green monkey. The procedure: The cytotoxicity of the Z-medicaments in Vero E6 (ZIKV target cells) was evaluated using the Cell Counting Kit-8 (CCK8).
Briefly, compounds at 2-fold serial dilutions were added to cells (2.0×10^4/well) pre-seeded in 96-well plates. The cells were cultured at 37° C. for 3 days, and incubated with CCK8 solution, followed by measurement of absorbance at 450 nm (A450 value) using microplate reader.

The subject of data set [1] is nine additional ZIKV strains. As to the kind of experiment: Plaque reduction inhibition assay, nine additional ZIKV strains taken together. The conditions noted are these: Zika virus, Vero C1008; range over nine additional strains, Vero E6 cells; read-out: IC50 values against all nine ZIKV strains tested. The data set is classed as cell-based. As to the method:
A plaque reduction inhibition assay was carried out to measure the inhibitory activity of Z-medicaments against infections of ZIKV and DENV. […] The compound-virus mixtures were then transferred to Vero E6 cells (10^5/well) and incubated at 37° C. for 1 h.
The identified Z-medicaments were further studied for their broad-spectrum activity against nine additional ZIKV strains, including those isolated from different hosts, namely humans, mosquitos, and rhesus macaques, at different time periods (1947-2016) in different countries, including Mexico, Panama, Columbia, Honduras, Puerto Rico, Thailand, Nigeria, and Uganda.

In a further data set the test system is DENV-2 human strain V594. Put plainly: DENV-2 infection in Ifnar1-/- mice, viral titers by flow cytometry. The data set is classed as in vivo. The conditions noted are these: 20 mg/kg i.p. 12 h before and 6, 24, 48 h after infection; DENV-2 V594 2×10^6 PFU; 3 dpi; vs gossypol and DMSO. The text has this:
FIG. 11A is a schematic diagram of experimental procedures. […] FIG. 11B depicts representative images of DENV titers in brain, kidney, heart, and sera analyzed by flow cytometry at 3 dpi. C6/36 cells with or without DENV-2 infection were used as positive and negative controls, respectively. The percentage of infected cells to the total number of cells is shown in each figure. FIG. 11C depicts the detection of DENV titers in challenged mouse tissues and sera at 3 dpi. […] The data are presented as mean±s.e.m of duplicate wells (n=2). The experiments were repeated twice with similar results.
ST087010 was evaluated for protection against DENV-2 infection in susceptible Ifnar1^−/− mice. […] Three days after infection, sera and tissues, including brain, kidney, and heart, were collected, and detected for DENV infection using a flow cytometry assay (as described below). […] DENV titers in tissues or sera were determined from ˜20 mg of tissue, or 25 μl of sera, and used for subsequent flow cytometry analysis.
A flow cytometry assay was carried out to analyze DENV-2 titers in the infected mouse tissue supernatants and sera collected above. […] Viral titers (infectious units/ml or infectious units/g) were calculated using the formula: ((% of infected cells)×(total number of cells)×(dilution factor))/(amount of inoculum added to cells). […]
For orientation: A flow cytometer gives signals particle by particle.

Turning to `Cc1cc2c(C(C)C)c(O)c(O)c(C=O)c2c(O)c1-c1c(C)cc2c(C(C)C)c(O)c(O)c(C=O)c2c1O` [Gossypol, gossypol], the CC50 at 3 days in “in vitro” turned out to be 14.49 ± 0.07 µM. Further, in data set [1], the IC50 lay in the range of 0.21 to 4.31 µM.

For `Cc1cc2c(C(C)C)c(O)c(O)c(/C=N/n3c(=O)[nH][nH]c3=O)c2c(O)c1-c1c(C)cc2c(C(C)C)c(O)c(O)c(/C=N/n3c(=O)[nH][nH]c3=O)c2c1O` [ST087010], in the data set on DENV-2 human strain V594, the “DENV-2 viral titer (number of infected cells) in brain, kidney, heart and sera” value is given as “significantly reduced number of infected cells”.
